Positions count from the first letter of the chain named.
Columns and labels:
Assay type in all cases: binding
[1] = target: T1, P-Rex2 PH domain (Homo sapiens, UniProt Q70Z35); experiment: differential scanning fluorimetry (SYPRO orange)
T1 construct: gene PREX2; PH domain, residues 219-364 for assays (219-377 for crystal 6BNM); 10xHis-MBP tag removed with TEV; E. coli Rosetta (DE3) pLysS
T1 sequence (Q70Z35 219-364): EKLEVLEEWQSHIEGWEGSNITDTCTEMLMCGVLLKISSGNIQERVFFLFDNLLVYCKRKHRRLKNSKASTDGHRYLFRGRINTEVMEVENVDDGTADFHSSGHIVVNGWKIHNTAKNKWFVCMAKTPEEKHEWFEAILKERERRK

[2] = target: T2, P-Rex2 PH domain (Homo sapiens, UniProt Q70Z35, K254A); experiment: differential scanning fluorimetry (SYPRO orange); conditions: 50 mM HEPES pH 8, 150 mM NaCl, 2 mM DTT; 1 mM ligand
T2 construct: gene PREX2; PH domain, residues 219-364 for assays (219-377 for crystal 6BNM); 10xHis-MBP tag removed with TEV; E. coli Rosetta (DE3) pLysS
T2 sequence (Q70Z35 219-364 K254A): T1 sequence (Q70Z35 219-364) with K36A

[3] = target: T3, P-Rex1 PH domain (Homo sapiens, UniProt Q8TCU6, K368A); experiment: differential scanning fluorimetry (SYPRO orange); conditions: 50 mM HEPES pH 8, 150 mM NaCl, 2 mM DTT; 1 mM ligand
T3 construct: gene PREX1; PH domain, residues 245-408; 10xHis-MBP tag removed with TEV; E. coli Rosetta (DE3) pLysS

[4] = target: T1, P-Rex2 PH domain; experiment: isothermal titration calorimetry; conditions: 20 mM HEPES pH 8, 150 mM NaCl, 25 °C
[5] = target: T4, P-Rex1 PH domain (Homo sapiens, UniProt Q8TCU6, K280A); experiment: differential scanning fluorimetry (SYPRO orange); conditions: 50 mM HEPES pH 8, 150 mM NaCl, 2 mM DTT; 1 mM ligand
T4 construct: gene PREX1; PH domain, residues 245-408; 10xHis-MBP tag removed with TEV; E. coli Rosetta (DE3) pLysS

[6] = target: T5, P-Rex2 PH domain (Homo sapiens, UniProt Q70Z35, K337A); experiment: differential scanning fluorimetry (SYPRO orange); conditions: 50 mM HEPES pH 8, 150 mM NaCl, 2 mM DTT; 1 mM ligand
T5 construct: gene PREX2; PH domain, residues 219-364 for assays (219-377 for crystal 6BNM); 10xHis-MBP tag removed with TEV; E. coli Rosetta (DE3) pLysS
T5 sequence (Q70Z35 219-364 K337A): T1 sequence (Q70Z35 219-364) with K119A

T3 sequence (Q8TCU6 245-408 K368A): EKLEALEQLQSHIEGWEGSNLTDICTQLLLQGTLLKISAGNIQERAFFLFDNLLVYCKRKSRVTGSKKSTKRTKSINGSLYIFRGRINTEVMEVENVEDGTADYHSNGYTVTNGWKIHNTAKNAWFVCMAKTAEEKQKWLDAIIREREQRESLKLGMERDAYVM
T4 sequence (Q8TCU6 245-408 K280A): as the sequence (Q8TCU6 245-408 K368A) above, with K36A, A124K counted along it

`O=P(O)(O)OC1[C@H](O)[C@H](OP(=O)(O)O)C(OP(=O)(O)O)[C@H](OP(=O)(O)O)[C@H]1O` (stereo partly drawn) [Ins(1,3,4,5)P4, D-myo-Inositol-1,3,4,5-tetraphosphate] was tested. Which ΔTm at 1000 µM [1] did it give?
Its ΔTm at 1000 µM is 11 °C.

And the “ΔTm at 1 mM” value [2]?
The value was “mutation of any one of the PIP3-binding residues drastically reduces the temperature shift”.

And the “ΔTm at 1 mM” value [3]?
Its value is “P-Rex1 variants display the same trends in binding deficiency”.

What about the Kd [4] of the same compound?
Its Kd is 240 ± 140 nM.

And the “ΔTm at 1 mM” value [5]?
Its value is “P-Rex1 variants display the same trends in binding deficiency”.

What about the “ΔTm at 1 mM” value [6] of the same compound?
The value was “mutation of any one of the PIP3-binding residues drastically reduces the temperature shift”.

From PMC7337056, “Structural and biochemical characterization of the pleckstrin homology domain of the RhoGEF P-Rex2 and its regulation by PIP3” (Journal of Structural Biology: X, 2018)
